The subject of the experiment is HCT116. As to conditions: 72 h. The method, boiled down:
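HCT116 cells were plated at 250 per well in 1536-well plates and allowed 5 h to attach. CellTiter-Glo luminescence was normalized to vehicle as 0% and positive control as -100%, followed by pattern correction. Four-parameter Hill fits provided IC50 and maximal efficacy.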

Our source for the IC50 cell viability values is the supplement of paper PMC12137928.

Where a name gives a salt, the structure may show the parent alone. Some results are limits rather than exact numbers.

Regarding `CC(C)(Oc1ccc(Cl)cc1)C(=O)OCCCOC(=O)C(C)(C)Oc1ccc(Cl)cc1` [Cholesolvin], the IC50 cell viability was over 45.8 µM (ICRF193 0 nM) and over 45.8 µM (ICRF193 200 nM).

As to `CC1(C)O[C@@H]2[C@@H](CO[C@@]3(COS(N)(=O)=O)OC(C)(C)O[C@@H]23)O1` [Topiramate], the IC50 cell viability was over 45.8 µM (ICRF193 0 nM) and over 45.8 µM (ICRF193 200 nM).

As to `O=C(Cc1cccs1)N[C@@H]1C(=O)N2C(C(=O)[O-])=C(C[n+]3ccccc3)CS[C@H]12` [Cephaloridine], the IC50 cell viability reads like this: (ICRF193 0 nM) over 45.8 µM; (ICRF193 200 nM) over 45.8 µM.

Consider `CN1[C@@H](CC(=O)c2ccccc2)CCC[C@H]1C[C@H](O)c1ccccc1` [LOBELINE HYDROCHLORIDE], for which the IC50 cell viability by setting is: (ICRF193 0 nM) over 45.8 µM; (ICRF193 200 nM) over 45.8 µM.

In the case of `COC(COC(N)=O)C1=C(N2CC2)C(=O)C(C)=C(N2CC2)C1=O` (centres undefined) [Carboquone], the IC50 cell viability (ICRF193 0 nM) was over 45.8 µM and the IC50 cell viability (ICRF193 200 nM) was over 45.8 µM.

As to `CC(C)(C)CC(C)(C)c1cc(Cc2cc(C(C)(C)CC(C)(C)C)cc(-n3nc4ccccc4n3)c2O)c(O)c(-n2nc3ccccc3n2)c1`, the IC50 cell viability by setting is: (ICRF193 0 nM) over 45.8 µM; (ICRF193 200 nM) over 45.8 µM.

Take `CC(C)C[C@H](NC(=O)[C@@H](COC(C)(C)C)NC(=O)[C@H](Cc1ccc(O)cc1)NC(=O)[C@H](CO)NC(=O)[C@H](Cc1c[nH]c2ccccc12)NC(=O)[C@H](Cc1cnc[nH]1)NC(=O)[C@@H]1CCC(=O)N1)C(=O)N[C@@H](CCCNC(=N)N)C(=O)N1CCC[C@H]1C(=O)NNC(N)=O` [Goserelin (acetate)]: the IC50 cell viability runs as follows: (ICRF193 0 nM) over 45.8 µM; (ICRF193 200 nM) over 45.8 µM.

`CC(C)c1ccc2oc3nc(N)c(C(=O)O)cc3c(=O)c2c1` [Amlexanox]: the IC50 cell viability is over 45.8 µM (ICRF193 0 nM) and over 45.8 µM (ICRF193 200 nM).

On to `CCN1C(=O)NC(c2ccccc2)C1=O` (centres undefined) [Ethotoin], for which the IC50 cell viability (ICRF193 0 nM) was over 45.8 µM and the IC50 cell viability (ICRF193 200 nM) was over 45.8 µM.

On to `Fc1ccc([C@@H]2CCNC[C@H]2COc2ccc3c(c2)OCO3)cc1` [Paroxetine], for which the IC50 cell viability is, setting by setting: (ICRF193 0 nM) over 45.8 µM; (ICRF193 200 nM) over 45.8 µM.

Consider `O=c1[nH]c2ccccc2n1CCCN1CCC(n2c(=O)[nH]c3cc(Cl)ccc32)CC1` [Domperidone], for which the IC50 cell viability reads like this: (ICRF193 0 nM) over 45.8 µM; (ICRF193 200 nM) over 45.8 µM.

`CCCCCCCCCCCCCCCCCCCCCC(=O)Nc1ccn([C@@H]2O[C@H](CO)[C@@H](O)[C@@H]2O)c(=O)n1` [Enocitabine]: the IC50 cell viability is over 45.8 µM (ICRF193 0 nM) and over 45.8 µM (ICRF193 200 nM).

On to `Cc1cc(O)ccc1C(C)(C)C` [P-T-BUTYL-M-CRESOL], for which the IC50 cell viability by setting is: (ICRF193 0 nM) over 45.8 µM; (ICRF193 200 nM) over 45.8 µM.

For the molecule `CCC(C(=O)OCCN1CCOC(c2ccccc2)C1C)c1ccccc1` (centres undefined) [Fenbutrazate], the IC50 cell viability was over 45.8 µM (ICRF193 0 nM) and over 45.8 µM (ICRF193 200 nM).

In turn, `N=C(N)NCCCCCCC(=O)NC(O)C(=O)NCCCCNCCCN` (centres undefined) [Gusperimus trihydrochloride] showed an IC50 cell viability (ICRF193 0 nM) of over 45.8 µM and an IC50 cell viability (ICRF193 200 nM) of over 45.8 µM.

For the molecule `CCOC(=O)c1ccccc1C(=O)OCC` [Diethyl phthalate], the IC50 cell viability runs as follows: (ICRF193 0 nM) over 45.8 µM; (ICRF193 200 nM) over 45.8 µM.

For the molecule `Nc1nc(=O)c2nc(CNc3ccc(C(=O)N[C@@H](CCC(=O)O)C(=O)O)cc3)cnc2[nH]1` [Folic acid], the IC50 cell viability runs as follows: (ICRF193 0 nM) over 45.8 µM; (ICRF193 200 nM) over 45.8 µM.

As for `NCCCCCC(=O)O` [Aminocaproic acid], the IC50 cell viability is over 45.8 µM (ICRF193 0 nM) and over 45.8 µM (ICRF193 200 nM).

Molecule `COC(=O)N[C@H](C(=O)N1CCC[C@H]1C(=O)Nc1ccc([C@@H]2CC[C@@H](c3ccc(NC(=O)[C@@H]4CCCN4C(=O)[C@@H](NC(=O)OC)C(C)C)cc3)N2c2ccc(C(C)(C)C)cc2)cc1)C(C)C` [Ombitasvir] registered an IC50 cell viability (ICRF193 0 nM) of over 45.8 µM and an IC50 cell viability (ICRF193 200 nM) of over 45.8 µM.

As to `CN[C@@H]1[C@H](O[C@H]2[C@H](O[C@H]3[C@H](O)[C@@H](O)[C@H](NC(=N)N)[C@@H](O)[C@@H]3NC(=N)N)O[C@@H](C)[C@]2(O)CO)O[C@@H](CO)[C@H](O)[C@H]1O` [DIHYDROSTREPTOMYCIN [5mM]], the IC50 cell viability reads like this: (ICRF193 0 nM) over 45.8 µM; (ICRF193 200 nM) over 45.8 µM.

`CNS(=O)(=O)CCc1ccc2[nH]cc(C3CCN(C)CC3)c2c1` [Naratriptan hydrochloride]: the IC50 cell viability runs as follows: (ICRF193 0 nM) over 45.8 µM; (ICRF193 200 nM) over 45.8 µM.

Take `CNC(=O)Oc1cccc2ccccc12` [Carbaryl]: the IC50 cell viability was over 45.8 µM (ICRF193 0 nM) and over 45.8 µM (ICRF193 200 nM).

In the case of `CC(NC(C)(C)C)C(=O)c1cccc(Cl)c1` (centres undefined) [Bupropion hydrochloride], the IC50 cell viability (ICRF193 0 nM) was over 45.8 µM and the IC50 cell viability (ICRF193 200 nM) is over 45.8 µM.

Take `NCCc1c[nH]cn1` [Histamine dihydrochloride]: the IC50 cell viability is, setting by setting: (ICRF193 0 nM) over 45.8 µM; (ICRF193 200 nM) over 45.8 µM.

Turning to `O=c1ccc2ccccc2o1` [Coumarin], the IC50 cell viability is, setting by setting: (ICRF193 0 nM) over 45.8 µM; (ICRF193 200 nM) over 45.8 µM.

In the case of `O=C1CN(/N=C/c2ccc([N+](=O)[O-])o2)C(=O)N1` [Nitrofurantoin], the IC50 cell viability was over 45.8 µM (ICRF193 0 nM) and over 45.8 µM (ICRF193 200 nM).

In the case of `CC1(C)O[C@@H]2C[C@H]3[C@@H]4C[C@H](F)C5=CC(=O)C=C[C@]5(C)[C@H]4[C@@H](O)C[C@]3(C)[C@]2(C(=O)CO)O1` [Flunisolide], the IC50 cell viability reads like this: (ICRF193 0 nM) over 45.8 µM; (ICRF193 200 nM) over 45.8 µM.
